Drawing on patent US12534457B2, “Heteroaryl derivative compounds, and uses thereof” (Voronoi Inc., priority 2021, dated 2026), this text covers GI50 for 28 molecules.

The test system of the experiment is Ba/F3 cells expressing EGFR Del19/C797S (EGFR DC). Description: Proliferation inhibitory activity, Ba/F3 cells expressing EGFR Del19/C797S (CellTiter-Glo). To be noted: Mus musculus, BaF3, 72 hours of compound treatment. The format is cell-based. On the procedure:
The following experiments were performed to evaluate the inhibitory activity of the compounds according to the present disclosure on Ba/F3 proliferation expressing EGFR C797S, L861Q, G719A, S768I, L718Q, and/or G724S mutations.
For Ba/F3 cells, RPMI-1640 containing 10% FBS and 5 ng/ml IL-3 (R&D Systems) was used. Transduced Ba/F3 cells were cultured after adding 1 μg/ml puromycin (Invitrogen) to the same medium.
At 24 hours before treatment with the compounds, 3000 to 5000 cells were aliquoted into each well of a white clear bottom 96 well plate (Corning). The compounds were diluted in dimethyl sulfoxide (3 times dilution, 12 concentrations in total), and injected in an amount of 1 μl so that the final concentration was 0.2 nM to 5 uM. For measurement of living cells, after 72 hours of compound treatment, the cells were stored at room temperature for 10 min using CellTiter-Glo luminescentcell-viability reagent (Promega), and then luminescence intensity was measured using a reader (SynergyNeo, Biotek). Each test was repeated three times. Result values were calculated as the cell growth rate (%) compared to the control. The graphs were created using GraphPad Prism version 8.3.0 program and the GI50 values were calculated.
(In general: Cellular ATP, detected with luciferase, serves as a proxy for viable cell number.)

The GI50 is the concentration giving 50% growth inhibition. In the case of `Cc1cc(Nc2cc(N3OCC[C@@H]3c3ccccc3)ncn2)ccc1N1CCC(N2CCN(C)CC2)CC1` [Example 53, (R)—N-(3-methyl-4-(4-(4-methylpiperazin-1-yl)piperidin-1-yl)phenyl)-6-(3-phenylisoxazolidin-2-yl)pyrimidin-4-amine], the GI50 is under 50 nM.
In the case of `CN1CCN(C2CCN(c3ccc(Nc4cc(N5OCC[C@@H]5c5ccccc5)ncn4)cc3)CC2)CC1` [Example 54, (R)—N-(4-(4-(4-methylpiperazin-1-yl)piperidin-1-yl)phenyl)-6-(3-phenylisoxazolidin-2-yl)pyrimidin-4-amine], the GI50 was under 50 nM.
In the case of `C[C@@H](Oc1cc(N2CCC(N3CCN(C)CC3)CC2)ccc1Nc1cc(N2OCC[C@@H]2c2ccccc2)ncn1)C(F)(F)F` [Example 56, N-(4-(4-(4-methylpiperazin-1-yl)piperidin-1-yl)-2-(((R)-1,1,1-trifluoropropan-2-yl)oxy)phenyl)-6-((R)-3-phenylisoxazolidin-2-yl)pyrimidin-4-amine] it was under 50 nM.
For `COc1cc(N2CCC(N3C[C@H]4C[C@@H]3CN4C)CC2)ccc1Nc1cc(N2OCC[C@@H]2c2ccccc2)ncn1` [Example 57, N-(2-methoxy-4-(4-((1R,4R)-5-methyl-2,5-diazabicyclo[2.2.1]heptan-2-yl)piperidin-1-yl)phenyl)-6-((R)-3-phenylisoxazolidin-2-yl)pyrimidin-4-amine], the GI50 is under 50 nM.
In the case of `COc1cc(N2C[C@H]3C[C@@H]2CO3)ccc1Nc1cc(N2OCC[C@@H]2c2ccccc2)ncn1` [Example 59, N-(4-((1R,4R)-2-oxa-5-azabicyclo[2.2.1]heptan-5-yl)-2-methoxyphenyl)-6-((R)-3-phenylisoxazolidin-2-yl)pyrimidin-4-amine] it was under 50 nM.
As for `COc1cc(N2CCC(N3CCN(C4CC4)C(C)(C)C3)CC2)ccc1Nc1cc(N2OCC[C@@H]2c2ccccc2)ncn1` [Example 61, (R)—N-(4-(4-(4-cyclopropyl-3,3-dimethylpiperazin-1-yl)piperidin-1-yl)-2-methoxyphenyl)-6-(3-phenylisoxazolidin-2-yl)pyrimidin-4-amine], the GI50 is under 50 nM.
In the case of `COc1cc(N2CCC(N3CCCC3)CC2)ccc1Nc1cc(N2OCC[C@@H]2c2ccccc2)ncn1` [Example 62, (R)—N-(2-methoxy-4-(4-(pyrrolidin-1-yl)piperidin-1-yl)phenyl)-6-(3-phenylisoxazolidin-2-yl)pyrimidin-4-amine], the GI50 was under 50 nM.
`COc1cc(N2CCC(N3CCC(N4CCN(C5CC5)CC4)CC3)CC2)ccc1Nc1cc(N2OCC[C@@H]2c2ccccc2)ncn1` [Example 63, (R)—N-(4-(4-(4-cyclopropylpiperazin-1-yl)-[1,4′-bipiperidin]-1′-yl)-2-methoxyphenyl)-6-(3-phenylisoxazolidin-2-yl)pyrimidin-4-amine]: the GI50 is under 50 nM.
For the molecule `COc1cc(OCCN(C)C)ccc1Nc1cc(N2OCC[C@@H]2c2ccccc2)ncn1` [Example 64, (R)—N-(4-(2-(dimethylamino)ethoxy)-2-methoxyphenyl)-6-(3-phenylisoxazolidin-2-yl)pyrimidin-4-amine], the GI50 was under 50 nM.
In the case of `COc1cc(SCCN(C)C)ccc1Nc1cc(N2OCC[C@@H]2c2ccccc2)ncn1` [Example 65, (R)—N-(4-((2-(dimethylamino)ethyl)thio)-2-methoxyphenyl)-6-(3-phenylisoxazolidin-2-yl)pyrimidin-4-amine] it was under 50 nM; in that of `COc1cc(N2CCSCC2)ccc1Nc1cc(N2OCC[C@@H]2c2ccccc2)ncn1` [Example 66, (R)—N-(2-methoxy-4-thiomorpholinophenyl)-6-(3-phenylisoxazolidin-2-yl)pyrimidin-4-amine], under 50 nM; in that of `COc1cc(N2CCCN(C)CC2)ccc1Nc1cc(N2OCC[C@@H]2c2ccccc2)ncn1` [Example 67, (R)—N-(2-methoxy-4-(4-methyl-1,4-diazepan-1-yl)phenyl)-6-(3-phenylisoxazolidin-2-yl)pyrimidin-4-amine], under 50 nM.
For the molecule `C=CCN1CCN(c2ccc(Nc3cc(N4OCC[C@@H]4c4ccccc4)ncn3)cc2)CC1` [Example 68, (R)—N-(4-(4-allylpiperazin-1-yl)phenyl)-6-(3-phenylisoxazolidin-2-yl)pyrimidin-4-amine], the GI50 was under 50 nM.
For the molecule `CN(C)[C@@H]1CCN(c2ccc(Nc3cc(N4OCC[C@@H]4c4ccccc4)ncn3)cc2)C1` [Example 69, N-(4-((R)-3-(dimethylamino)pyrrolidin-1-yl)phenyl)-6-((R)-3-phenylisoxazolidin-2-yl)pyrimidin-4-amine], the GI50 is under 50 nM.
On to `CN1CCN(C(=O)c2ccc(Nc3cc(N4OCC[C@@H]4c4ccccc4)ncn3)cc2)CC1` [Example 72, (R)-(4-methylpiperazin-1-yl) (4-((6-(3-phenylisoxazolidin-2-yl)pyrimidin-4-yl)amino)phenyl)methanone], for which the GI50 fell in the range of 50 to 500 nM.
Regarding `FC(F)(F)c1cccc(Nc2cc(N3OCC[C@@H]3c3ccccc3)ncn2)c1` [Example 73, (R)-6-(3-phenylisoxazolidin-2-yl)-N-(3-(trifluoromethyl)phenyl)pyrimidin-4-amine], the GI50 lay within 50 to 500 nM.
For `Fc1ncc(N2C[C@@H]3C[C@H]2CO3)cc1Nc1cc(N2OCC[C@@H]2c2ccccc2)ncn1` [Example 74, N-(5-((1S,4S)-2-oxa-5-azabicyclo[2.2.1]heptan-5-yl)-2-fluoropyridin-3-yl)-6-((R)-3-phenylisoxazolidin-2-yl)pyrimidin-4-amine], the GI50 was under 50 nM.
As for `O=C1CCCN1c1ccc(Nc2cc(N3OCC[C@@H]3c3ccccc3)ncn2)cc1` [Example 75, (R)-1-(4-((6-(3-phenylisoxazolidin-2-yl)pyrimidin-4-yl)amino)phenyl)pyrrolidin-2-one], the GI50 was under 50 nM.
`CN1Cc2cc(Nc3cc(N4OCC[C@@H]4c4ccccc4)ncn3)ccc2C1=O` [Example 76, (R)-2-methyl-5-((6-(3-phenylisoxazolidin-2-yl)pyrimidin-4-yl)amino)isoindolin-1-one]: the GI50 is under 50 nM.
`c1ccc([C@H]2CCON2c2cc(Nc3ccc(N4CCNCC4)cc3)ncn2)cc1` [Example 77, (R)-6-(3-phenylisoxazolidin-2-yl)-N-(4-(piperazin-1-yl)phenyl)pyrimidin-4-amine]: the GI50 is under 50 nM.
In the case of `c1ccc([C@H]2CCON2c2cc(Nc3ccc4c(c3)CCNC4)ncn2)cc1` [Example 78, (R)—N-(6-(3-phenylisoxazolidin-2-yl)pyrimidin-4-yl)-1,2,3,4-tetrahydroisoquinolin-6-amine], the GI50 is under 50 nM.
Regarding `Cn1nccc1-c1ccc(Nc2cc(N3OCC[C@@H]3c3ccccc3)ncn2)c2c1OCCO2` [Example 80, (R)—N-(8-(1-methyl-1H-pyrazol-5-yl)-2,3-dihydrobenzo[b][1,4]dioxin-5-yl)-6-(3-phenylisoxazolidin-2-yl)pyrimidin-4-amine], the GI50 was 50 to 500 nM.
With `COc1cc(P2(=O)CCN(C3CC3)CC2)ccc1Nc1cc(N2OCC[C@@H]2c2ccccc2)ncn1` [Example 81, (R)-1-cyclopropyl-4-(3-methoxy-4-((6-(3-phenylisoxazolidin-2-yl)pyrimidin-4-yl)amino)phenyl)-1,4-azaphosphinane 4-oxide], the GI50 lay in the range of 50 to 500 nM.
`c1ccc([C@H]2CCON2c2cc(Nc3ccc4c(c3)CC[C@H](N3CCCC3)CC4)ncn2)cc1` [Example 83, 6-((R)-3-phenylisoxazolidin-2-yl)-N—((R)-7-(pyrrolidin-1-yl)-6,7,8,9-tetrahydro-5H-benzo[7]annulen-2-yl)pyrimidin-4-amine]: the GI50 is under 50 nM.
For `CCC(=O)Nc1cc(Nc2cc(N3OCC[C@@H]3c3cc(F)cc(F)c3)ncn2)c(OC)cc1N1CCC(N2CCC(N(C)C)CC2)CC1` [Example 85, (R)—N-(5-((6-(3-(3,5-difluorophenyl)isoxazolidin-2-yl)pyrimidin-4-yl)amino)-2-(4-(dimethylamino)-[1,4′-bipiperidin]-1′-yl)-4-methoxyphenyl)propionamide], the GI50 was under 50 nM.
For the molecule `COc1cc(N2CCC(N3CCN4CCCC4C3)CC2)c(NC(=O)CCCl)cc1Nc1cc(N2OCC[C@@H]2c2cc(F)cc(F)c2)ncn1` (stereo partly drawn) [Example 86, 3-chloro-N-(5-((6-((R)-3-(3,5-difluorophenyl)isoxazolidin-2-yl)pyrimidin-4-yl)amino)-2-(4-(hexahydropyrrolo[1,2-a]pyrazin-2 (1H)-yl)piperidin-1-yl)-4-methoxyphenyl)propanamide], the GI50 is under 50 nM.
Consider `CCC(=O)Nc1cc(Nc2cc(N3OCC[C@@H]3c3ccc(F)cc3F)ncn2)c(OC)cc1N1CCC(N2CCC(N3CCN(C)CC3)CC2)CC1` [Example 87, (R)—N-(5-((6-(3-(2,4-difluorophenyl)isoxazolidin-2-yl)pyrimidin-4-yl)amino)-4-methoxy-2-(4-(4-methylpiperazin-1-yl)-[1,4′-bipiperidin]-1′-yl)phenyl)propionamide], for which the GI50 was under 50 nM.
As to `COc1cc(N2CCC3(CC2)CC(N(C)C)C3)c(C)cc1Nc1cc(N2OCC[C@@H]2c2ccccc2)ncn1` [Example 88, (R)-7-(5-methoxy-2-methyl-4-((6-(3-phenylisoxazolidin-2-yl)pyrimidin-4-yl)amino)phenyl)-N,N-dimethyl-7-azaspiro[3.5]nonan-2-amine], the GI50 is under 50 nM.
